Results: PMC10108347, “Heterobifunctional Ligase Recruiters Enable pan-Degradation of Inhibitor of Apoptosis Proteins” (Journal of Medicinal Chemistry, 2023)
Where two headings read alike, the source gives them in different places.

Assays:
[1] = biological target: cIAP2 (Homo sapiens, UniProt Q13489); test: Immunoblotting (western blot) quantification of cIAP2 levels in MM.1S cells; details: for remaining activity at 0.1 µM: MM1.S
[2] = biological target: T1, plasma protein (HSA column) (Homo sapiens, UniProt P02768); test: Plasma protein binding estimated by HPLC on a […] HSA column; format: in vitro ADME; details: CHIRALPAK HSA column (50 × 3 mm, 5 μm), estimated by an HPLC-based method, read-out: PPB (plasma protein binding) (converted)
T1 construct: purchased
T1 sequence (P02768 25-609): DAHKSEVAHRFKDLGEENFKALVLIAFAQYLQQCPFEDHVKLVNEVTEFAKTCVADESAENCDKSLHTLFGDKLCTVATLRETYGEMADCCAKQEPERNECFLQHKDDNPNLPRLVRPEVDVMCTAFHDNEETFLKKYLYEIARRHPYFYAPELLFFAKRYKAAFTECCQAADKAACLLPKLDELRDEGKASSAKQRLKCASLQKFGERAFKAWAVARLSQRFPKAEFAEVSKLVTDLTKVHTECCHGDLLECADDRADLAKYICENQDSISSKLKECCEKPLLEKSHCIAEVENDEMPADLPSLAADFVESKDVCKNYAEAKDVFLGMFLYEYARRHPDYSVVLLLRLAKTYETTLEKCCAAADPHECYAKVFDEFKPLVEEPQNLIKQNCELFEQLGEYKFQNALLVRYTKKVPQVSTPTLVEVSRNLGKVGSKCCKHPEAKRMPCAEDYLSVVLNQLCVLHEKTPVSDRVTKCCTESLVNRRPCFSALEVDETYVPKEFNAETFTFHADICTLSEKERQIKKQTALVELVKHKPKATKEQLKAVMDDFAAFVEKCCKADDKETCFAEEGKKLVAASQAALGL
Protocol: Plasma protein binding (% PPB) was estimated by correlating the logarithmic retention times of the analytes on a […] HSA 50 × 3 mm, 5 μm column with the literature-known % PPB values (converted into log K values) of the following drugs: warfarin, ketoprofen, budesonide, nizatidine, indomethacin, acetylsalicylic acid, carbamazepine, piroxicam, nicardipine, and cimetidine (for details, see Valko et al.).[67] The samples were dissolved in MeCN/DMSO 9:1 to achieve a final concentration of 0.5 mg/mL. Mobile phase A was 50 mM ammonium acetate adjusted to pH 7.4 with ammonia solution, while mobile phase B was iPrOH. The flow rate was set to 1.0 mL/min, the UV detector was set to 254 nm, and the column temperature was kept at 30 °C. After injecting 2 μL of the sample, a linear gradient from 100% A to 30% iPrOH in 5.4 min was applied. From 5.4 to 18 min, 30% iPrOH was kept, followed by switching back to 100% A in 1.0 min and a re-equilibration time of 6 min. With the aid of the calibration line (R^2 = 0.96), the log K values of new substances were calculated and converted to their % PPB values.

[3] = Log D7.4 measurement by chromatographic (fast-gradient HPLC) method; details: for chromatographic logD: pH 7.4
Protocol: The system was calibrated by plotting the retention times of six different drugs (atenolol, metoprolol, labetalol, diltiazem, triphenylene, and permethrin) versus their literature-known log D7.4 in a calibration line (R^2 = 0.99). Subsequently, the mean retention times of the analytes were taken to calculate their log D7.4 values with the aid of the calibration line. At least two independent measurements of each analyte were performed.

[4] = biological target: VHL30 (Homo sapiens, UniProt P40337); test: Immunoblotting (western blot) quantification of VHL30 levels in MM.1S cells; details: MM1.S, 16 h, read-out: %remaining protein VHL30
VHL30, sequence (P40337 whole entry): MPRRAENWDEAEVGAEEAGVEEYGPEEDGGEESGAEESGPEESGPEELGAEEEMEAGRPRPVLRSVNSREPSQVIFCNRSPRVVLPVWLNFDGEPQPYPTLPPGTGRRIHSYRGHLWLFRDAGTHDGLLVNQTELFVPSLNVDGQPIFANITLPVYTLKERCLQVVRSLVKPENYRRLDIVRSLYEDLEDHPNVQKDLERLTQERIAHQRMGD
Protocol: (§1) To evaluate the capability of our panel of hetero-PROTACs for E3 ligase degradation, VHL19, VHL30, CRBN, cIAP1, cIAP2, and XIAP levels were quantified by western blot analyses. […] SDS-PAGE was performed, and proteins were then transferred onto PVDF membranes. Blotted membranes were blocked with 5% milk in Tris-buffered saline/Tween20 (TBST). Primary antibodies were diluted in 5% BSA in TBST, and incubations were performed overnight at 4 °C. Secondary HRP-conjugated antibodies diluted in 5% milk were incubated for 1 h at room temperature. Detection of proteins on PVDF was carried out using the WesternBright ECL HRP substrate or the WesternBright Sirius HRP substrate (Advansta, San Jose, USA) and imaged with LAS 4000× (Fujifilm). Membranes were subjected to 10 min incubation with Restore Western Blot Stripping Buffer (Thermo Fisher Scientific, Waltham, USA), followed by TBST washes. After brief re-activation with methanol, the membranes were blocked, and further probing of proteins was carried out.
(§2) Quantification of blots was performed using ImageJ software (National Institutes of Health).

[5] = biological target: XIAP (Homo sapiens, UniProt P98170); test: Immunoblotting (western blot) quantification of XIAP levels in MM.1S cells; details: for remaining activity at 0.1 µM: MM1.S, 16 h
XIAP, sequence (P98170 whole entry): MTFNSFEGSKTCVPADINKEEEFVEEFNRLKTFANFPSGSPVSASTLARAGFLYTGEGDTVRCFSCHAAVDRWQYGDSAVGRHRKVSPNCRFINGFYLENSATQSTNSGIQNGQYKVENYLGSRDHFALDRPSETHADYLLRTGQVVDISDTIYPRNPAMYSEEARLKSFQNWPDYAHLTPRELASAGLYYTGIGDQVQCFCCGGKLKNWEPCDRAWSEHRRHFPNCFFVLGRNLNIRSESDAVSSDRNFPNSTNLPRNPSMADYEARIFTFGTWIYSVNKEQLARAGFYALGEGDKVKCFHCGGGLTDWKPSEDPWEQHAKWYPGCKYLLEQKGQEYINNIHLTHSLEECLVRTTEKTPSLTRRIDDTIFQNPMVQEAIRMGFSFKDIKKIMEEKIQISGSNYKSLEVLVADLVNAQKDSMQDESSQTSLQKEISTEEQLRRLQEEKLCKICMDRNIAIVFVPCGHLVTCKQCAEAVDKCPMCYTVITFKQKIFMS
Protocol: as §1, §2

[6] = biological target: cIAP1 (Homo sapiens, UniProt Q13490); test: Immunoblotting (western blot) quantification of cIAP1 levels in MM.1S cells; details: for remaining activity at 0.1 µM: MM1.S, 16 h
cIAP1, sequence (Q13490 whole entry): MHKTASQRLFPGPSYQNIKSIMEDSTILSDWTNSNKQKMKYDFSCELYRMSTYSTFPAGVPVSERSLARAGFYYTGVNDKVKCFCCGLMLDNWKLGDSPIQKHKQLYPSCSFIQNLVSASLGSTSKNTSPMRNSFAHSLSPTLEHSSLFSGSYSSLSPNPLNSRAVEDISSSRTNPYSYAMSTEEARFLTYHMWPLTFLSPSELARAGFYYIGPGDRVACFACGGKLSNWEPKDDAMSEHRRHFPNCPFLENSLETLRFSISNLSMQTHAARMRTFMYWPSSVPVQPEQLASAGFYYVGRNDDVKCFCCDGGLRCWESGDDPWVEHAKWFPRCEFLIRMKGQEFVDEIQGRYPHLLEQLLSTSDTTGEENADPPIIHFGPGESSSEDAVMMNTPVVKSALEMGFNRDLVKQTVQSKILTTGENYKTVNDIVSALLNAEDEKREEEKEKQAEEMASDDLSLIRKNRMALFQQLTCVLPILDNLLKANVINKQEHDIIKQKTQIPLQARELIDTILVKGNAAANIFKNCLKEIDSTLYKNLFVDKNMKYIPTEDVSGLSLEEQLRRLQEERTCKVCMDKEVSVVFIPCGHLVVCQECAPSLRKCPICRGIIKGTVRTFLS

[7] = system: IKZF3; test: Immunoblotting (western blot) quantification of IKZF3 levels in MM.1S cells; details: for %remaining protein IKZF3: 16 h treatment at 0.1 μM, normalized to loading control and DMSO
[8] = biological target: CRBN (Homo sapiens, UniProt Q96SW2); test: Immunoblotting (western blot) quantification of CRBN levels in MM.1S cells; details: for remaining activity at 0.1 µM: MM1.S, 16 h, read-out: %remaining protein CRBN
CRBN, sequence (Q96SW2 whole entry): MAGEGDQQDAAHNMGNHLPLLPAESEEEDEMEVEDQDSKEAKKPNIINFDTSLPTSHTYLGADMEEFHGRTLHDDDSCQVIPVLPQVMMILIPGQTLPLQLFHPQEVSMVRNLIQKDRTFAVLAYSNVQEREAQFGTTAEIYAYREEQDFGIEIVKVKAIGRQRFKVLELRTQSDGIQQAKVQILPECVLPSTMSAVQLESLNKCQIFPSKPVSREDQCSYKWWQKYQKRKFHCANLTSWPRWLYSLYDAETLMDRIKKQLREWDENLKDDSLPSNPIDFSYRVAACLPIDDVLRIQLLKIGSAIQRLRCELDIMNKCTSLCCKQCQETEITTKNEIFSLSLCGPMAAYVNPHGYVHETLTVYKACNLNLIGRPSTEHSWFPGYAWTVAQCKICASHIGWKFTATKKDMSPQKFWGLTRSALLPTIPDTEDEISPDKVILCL
Protocol: as §1, §2

[9] = system: IAPs (cIAP1, cIAP2, XIAP); test: Immunoblotting of IAPs in MM.1S cells, overall degradation profile, time course and washout; format: cell-based; details: 16 h, western blot, concentration (10 nM to 1 μM)
Protocol: Next, we examined the persistence of IAP degradation in MM.1S cells after a single exposure to 1 μM of 9 and subsequent removal of the compound. […] The reliance on CRL2^VHL was assessed with a neddylation inhibitor MLN4924, which blocks the activity of CRLs (Figure S13A).

[10] = 16 h, read-out: %remaining protein cIAP2
[11] = read-out: %remaining protein XIAP
[12] = read-out: %remaining protein cIAP1
[13] = MM.1S cells, 16 h treatment at 0.1 μM, normalized to loading control and DMSO

cIAP2, sequence (Q13489 whole entry): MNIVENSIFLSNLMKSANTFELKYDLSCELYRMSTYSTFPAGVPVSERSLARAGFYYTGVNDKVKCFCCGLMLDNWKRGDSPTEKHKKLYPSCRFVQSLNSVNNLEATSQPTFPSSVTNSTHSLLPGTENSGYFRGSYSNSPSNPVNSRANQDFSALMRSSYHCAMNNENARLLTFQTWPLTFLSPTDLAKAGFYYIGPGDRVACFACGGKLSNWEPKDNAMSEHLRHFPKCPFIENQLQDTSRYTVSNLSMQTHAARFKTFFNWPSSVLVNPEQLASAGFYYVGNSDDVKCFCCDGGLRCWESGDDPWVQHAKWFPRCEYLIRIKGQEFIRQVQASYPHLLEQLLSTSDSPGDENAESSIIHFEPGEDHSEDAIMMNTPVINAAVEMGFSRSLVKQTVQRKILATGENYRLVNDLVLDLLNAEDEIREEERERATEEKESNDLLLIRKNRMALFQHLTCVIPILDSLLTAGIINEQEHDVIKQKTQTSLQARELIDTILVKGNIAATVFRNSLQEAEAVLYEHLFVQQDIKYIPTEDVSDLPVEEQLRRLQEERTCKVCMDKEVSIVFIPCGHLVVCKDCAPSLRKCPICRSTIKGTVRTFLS

| Compound | remaining activity at 0.1 µM [1, 10] [%] | fraction unbound at 0.5 mg/mL [2] | chromatographic logD [3] | remaining activity at 0.1 µM [5, 11] [%] | remaining activity at 0.1 µM [6, 12] [%] | %remaining protein IKZF3 [7] [%] | remaining activity at 0.1 µM [8] [%] | IAP degradation profile (in words) [9] | further results |
| --- | --- | --- | --- | --- | --- | --- | --- | --- | --- |
| CN[C@@H](C)C(=O)N[C@H](C(=O)N1C[C@@H](Oc2cccc(OCCCCCCOCCCCCCOCCOc3cc(-c4scnc4C)ccc3CNC(=O)[C@@H]3C[C@@H](O)CN3C(=O)[C@H](C(C)C)N3Cc4ccccc4C3=O)c2)C[C@H]1C(=O)N[C@@H]1CCCc2ccccc21)C1CCCCC1 [PROTAC 17, (2S,4S)-1-((S)-2-Cyclohexyl-2-((S)-2-(methylamino)propanamido)acetyl)-4-(3-((6-((6-(2-(2-(((2S,4R)-4-hydroxy-1-((S)-3-methyl-2-(1-oxoisoindolin-2-yl)butanoyl)pyrrolidine-2-carboxamido)methyl)-5-(4-methylthiazol-5-yl)phenoxy)ethoxy)hexyl)oxy)hexyl)oxy)phenoxy)-N-((R)-1,2,3,4-tetrahydronaphthalen-1-yl)pyrrolidine-2-carboxamide] | 31 | 0.03 | 5.2 | 1 | 3 | – | – | – | remaining activity at 0.1 µM [4]: 81% |
| CN[C@@H](C)C(=O)N[C@H](C(=O)N1C[C@@H](Oc2cccc(OCCCCCNc3cccc4c3C(=O)N(C3CCC(=O)NC3=O)C4=O)c2)C[C@H]1C(=O)N[C@@H]1CCCc2ccccc21)C1CCCCC1 (stereo partly drawn) [PROTAC 20, (2S,4S)-1-((S)-2-Cyclohexyl-2-((S)-2-(methylamino)propanamido)acetyl)-4-(3-((5-((2-(2,6-dioxopiperidin-3-yl)-1,3-dioxoisoindolin-4-yl)amino)pentyl)oxy)phenoxy)-N-((R)-1,2,3,4-tetrahydronaphthalen-1-yl)pyrrolidine-2-carboxamide] | – | 0.04 | 4.6 | – | – | 89 | 95 | – | remaining activity at 0.1 µM ([1]; 16 h, read-out: %remaining protein cIAP2, MM.1S cells, 16 h treatment at 0.1 μM, normalized to loading control and DMSO): 34%; remaining activity at 0.1 µM ([5]; read-out: %remaining protein XIAP, MM.1S cells, 16 h treatment at 0.1 μM, normalized to loading control and DMSO): 8%; remaining activity at 0.1 µM ([6]; read-out: %remaining protein cIAP1, MM.1S cells, 16 h treatment at 0.1 μM, normalized to loading control and DMSO): 6% |
| CN[C@@H](C)C(=O)N[C@H](C(=O)N1C[C@@H](Oc2cccc(OCCCCCOCCCCCOCCCCCCNc3cccc4c3C(=O)N(C3CCC(=O)NC3=O)C4=O)c2)C[C@H]1C(=O)N[C@@H]1CCCc2ccccc21)C1CCCCC1 (stereo partly drawn) [PROTAC 26, (2S,4S)-1-((S)-2-Cyclohexyl-2-((S)-2-(methylamino)propanamido)acetyl)-4-(3-((5-((5-((6-((2-(2,6-dioxopiperidin-3-yl)-1,3-dioxoisoindolin-4-yl)amino)hexyl)oxy)pentyl)oxy)pentyl)oxy)phenoxy)-N-((R)-1,2,3,4-tetrahydronaphthalen-1-yl)pyrrolidine-2-carboxamide] | 16 | – | 6.5 | 2 | 10 | 90 | 95 | pronounced pan-IAP depletion | IKZF3 degradation (in words) ([7]; 16 h, 1 μM): substantial IKZF3 degradation at 1 μM |
| CC[C@H](NC(=O)[C@H](C)NC)C(=O)N1C[C@@H](O)C[C@H]1Cc1c(-c2[nH]c3cc(F)ccc3c2C[C@@H]2C[C@H](O)CN2C(=O)[C@H](CC)NC(=O)[C@H](C)NC)[nH]c2cc(F)ccc12 [birinapant, reference compound] | – | 0.05 | 3.4 | – | – | – | – | potent cIAP autodegradation | cIAP2 degradation (in words) ([1]; MM.1S cells, 16 h, western blot, 0.1 or 1 μM): substantial degradation |
| (2S,4S)-1-((S)-2-Cyclohexyl-2-((S)-2-(methylamino)propanamido)acetyl)-4-(3-((8-((2-(2,6-dioxopiperidin-3-yl)-1,3-dioxoisoindolin-4-yl)amino)octyl)oxy)phenoxy)-N-((R)-1,2,3,4-tetrahydronaphthalen-1-yl)pyrrolidine-2-carboxamide [PROTAC 21] | – | – | – | – | – | 95 | – | – | %remaining protein cIAP2 [1, 13]: 14%; logD (experimental partition coefficient, elog D7.4) ([3]; pH 7.4, fast-gradient HPLC method): 5.7; %remaining protein XIAP [5, 13]: 4%; %remaining protein cIAP1 [6, 13]: 5%; %remaining protein CRBN [8, 13]: 90% |
